Entries after “also recorded” stand apart in the source; their conditions may differ.
Columns and labels:
Type in all cases: physicochemical
[1] = form conversion in slurry / relative thermodynamic stability of polymorphs
Procedure: (§1) SSNMR and XRPD indexing studies have proven that Form N-3 is a single phase. No significant weight loss was observed up to about 250° C. in TGA analysis. […] Form N-3 has the tendency to form small primary particles (<10 μm) of the shape of needles or rods.
(§2) P-1 is a desolvated phase obtained by drying the initial material (potential solvates) crystallized from the reaction mixture. P-1 has never been observed in slurry, and therefore there is no evidence to support assignment of P-1 as a single and neat phase that is crystallized directly from the reaction mixture. […] P-1 can also convert to Form N-2 upon heating at 230° C. in solid state.
A Good Laboratory Practice batch (˜550 g) of Form N-3 has been manufactured successfully by converting P-1 material using a slurry method in acetone at about 50° C. Acetone slurries of Form P-1 spiked at about 50° C. with 1% water still yield Form N-3, but the slurries spiked with 5% and 10% water result in P-3 (solvated) material. […] The hemi sec BuOH solvate, form 0.5SBU-4, converts to form N-2 upon heating. […] Form N-1 also undergoes a solid state transition to Form N-2 upon heating at about 90 to 130° C. In addition, P-1 converts to potential solvate/hydrate forms by slurrying in different solvent systems, e.g., MeOH/EtOAc, DMF/H2O, DMSO/H2O, NMP/H2O at room temperature or at about 50° C.

[2] = accelerated stability studies (physical stability, XRPD of stressed samples); conditions: for physical stability in accelerated stability studies: 40° C./75% RH/Open/4 Weeks and 50° C./Closed/4 Weeks
Procedure: as §1
Form N-1 undergoes a solid-state transition at about 90° C. as evidenced by hot-stage microscopy studies and converts to Form N-2 at about 90° C. which is confirmed by […] studies. Thermal analysis by DSC (FIG. 8) and TGA show a small exotherm at about 113° C., which is attributed to the solid-state transition to Form N-2, followed by a melting endotherm at about 255 to about 259° C. similar to the melting range for Form N-2.
as §2

[3] = moisture sorption and desorption study; conditions: for hygroscopicity (in words): moisture sorption and desorption study
Procedure: as §1, §2

For `NC(=O)c1nn(-c2cccc(Cl)c2)c2c1CCN(c1ccc(-n3ccccc3=O)cc1)C2=O` [Form N-1, 1-(3-chlorophenyl)-7-oxo-6-[4-(2-oxo-1(2H)pyridinyl)phenyl]-4,5,6,7-tetrahydro-1H-pyrazolo[3,4-c]pyridine-3-carboxamide], the “form conversion in slurry” value ([1]; slurry in acetone) was “converts to N-3 readily” and the “physical stability in accelerated stability studies” value [2] was “physically unstable”.

With `NC(=O)c1nn(-c2cccc(Cl)c2)c2c1CCN(c1ccc(-n3ccccc3=O)cc1)C2=O` [Form N-2, 1-(3-chlorophenyl)-7-oxo-6-[4-(2-oxo-1(2H)pyridinyl)phenyl]-4,5,6,7-tetrahydro-1H-pyrazolo[3,4-c]pyridine-3-carboxamide] the moisture adsorption ([3]; at 90% RH at 25° C.) was roughly 1.2%, the “hygroscopicity (in words)” value [3] was “nonhygroscopic” and the “relative thermodynamic stability of polymorphs” value (shortened to “relative thermodynamic stability”) ([1]; 25° C. to 60° C.) was “thermodynamically less stable than polymorph N-3”. The “form conversion in slurry” value ([1]; slurry at 25 and 60° C.) was “converts to N-3”, the “form conversion in slurry” value ([1]; slurry in acetone at RT or about 50° C.) was “converts to Form N-3 readily” and the “physical stability in stability study” value ([2]; 40° C./75% RH/Open for 5 Weeks and 50° C./Closed for 4 Weeks) was “physically stable”.

In the case of `NC(=O)c1nn(-c2cccc(Cl)c2)c2c1CCN(c1ccc(-n3ccccc3=O)cc1)C2=O` [Form N-3, 1-(3-chlorophenyl)-7-oxo-6-[4-(2-oxo-1(2H)pyridinyl)phenyl]-4,5,6,7-tetrahydro-1H-pyrazolo[3,4-c]pyridine-3-carboxamide], the “hygroscopicity (in words)” value [3] is reported as “nonhygroscopic; also recorded: non-hygroscopic”, the “hysteresis in moisture sorption/desorption” value ([3]; up to 95% RH at 25° C.) is reported as “no hysteresis was observed” and the moisture sorption ([3]; up to 95% RH at 25° C.) is reported as 0.4%. The “relative thermodynamic stability” value ([1]; 25° C. to 60° C.) was “thermodynamically more stable than polymorphs N-1 and N-2”, the “relative thermodynamic stability” value ([1]; room temperature to 60° C., from slurry conversions) was “thermodynamically more stable polymorph” and the “physical stability in accelerated stability studies” value [2] was “physically stable”.

With `NC(=O)c1nn(-c2cccc(Cl)c2)c2c1CCN(c1ccc(-n3ccccc3=O)cc1)C2=O` [Form P-1, 1-(3-chlorophenyl)-7-oxo-6-[4-(2-oxo-1(2H)pyridinyl)phenyl]-4,5,6,7-tetrahydro-1H-pyrazolo[3,4-c]pyridine-3-carboxamide] the “hygroscopicity (in words)” value [3] was “hygroscopic”, the “weight gain on adsorption” value ([3]; to 90% RH) was roughly 16% and the “form conversion in solvents” value ([1]; in solvents (e.g., acetone)) was “converts to Form N-3”. The “form conversion in slurry” value ([1]; slurry in different solvents (e.g., acetone, ACN, DMSO/MTBE) at about 50° C.) was “converts to Form N-3” and the “physical stability in accelerated stability studies (XRPD assay)” value ([2]; stressed for 3 weeks, 40° C./75% RH/Open) was “physically unstable”.

Reference: patent publication US7388096B2, “Crystalline forms of a factor Xa inhibitor” (Bristol-Myers Squibb Company, priority 2004, dated 2008)
